One may read the IC50 as the concentration at which inhibition is half-maximal. The term EC50 denotes the concentration that produces a half-maximal response. What is called AC50 is the midpoint of the concentration-response curve, whichever way the signal moves.

Data on two compounds can be found in ChEMBL document CHEMBL1201862, “PubChem BioAssay data set” (2004).

The target of experiment [1] is T1, Fatty acid synthase (Homo sapiens, UniProt P49327). As to the kind of experiment: inhibition of human FAS-TE enzyme activity – biochemical, endpoint fluorescence intensity, uHTS hits, dose response (AID 624327).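 Note: fluorescence from hydrolysis of an O-methyl fluorescein acyl ester substrate by the enzyme.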 It is filed as functional.
The target of experiment [2] is T1, Fatty acid synthase. The experiment is described as follows: inhibition of human FAS-TE enzyme activity – biochemical, kinetic fluorescence intensity, dose response (AID 624326).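 Note: rate of fluorescence rise from hydrolysis of a fluorogenic O-methyl fluorescein ester substrate.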 In kind it is functional.
Experiment [3] can be described thus: viability of HCT116 lacking mutant beta-catenin – cell-based, human colon tumor, dose response (AID 1045).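 Note: HCT116 colon tumor cells with beta catenin knocked out; cells exposed to compound for 60 hours.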 It is filed as functional.
Experiment [4] deals with Nucleotide-binding oligomerization domain-containing protein 2 (Homo sapiens, UniProt Q9HC29). As to the kind of experiment: inhibition of NOD2-driven NF-kB reporter – cell-based, luminescence, uHTS, HEK293 (AID 1566). It is filed as functional.
The nature of experiment [5]: viability of PTEN-deleted HCT116 cells – cell-based, HCT116 PTEN knockout, dose response (AID 1047).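 Note: HCT116 colon tumor cells with PTEN knocked out; cells exposed to compound for 60 hours before readout; potency for loss of cell viability measured by luminescence.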 It is filed as functional.
For experiment [6], the target named is T2, Heat shock factor protein 1 (Mus musculus, UniProt P38532).
T2 sequence (P38532 whole entry): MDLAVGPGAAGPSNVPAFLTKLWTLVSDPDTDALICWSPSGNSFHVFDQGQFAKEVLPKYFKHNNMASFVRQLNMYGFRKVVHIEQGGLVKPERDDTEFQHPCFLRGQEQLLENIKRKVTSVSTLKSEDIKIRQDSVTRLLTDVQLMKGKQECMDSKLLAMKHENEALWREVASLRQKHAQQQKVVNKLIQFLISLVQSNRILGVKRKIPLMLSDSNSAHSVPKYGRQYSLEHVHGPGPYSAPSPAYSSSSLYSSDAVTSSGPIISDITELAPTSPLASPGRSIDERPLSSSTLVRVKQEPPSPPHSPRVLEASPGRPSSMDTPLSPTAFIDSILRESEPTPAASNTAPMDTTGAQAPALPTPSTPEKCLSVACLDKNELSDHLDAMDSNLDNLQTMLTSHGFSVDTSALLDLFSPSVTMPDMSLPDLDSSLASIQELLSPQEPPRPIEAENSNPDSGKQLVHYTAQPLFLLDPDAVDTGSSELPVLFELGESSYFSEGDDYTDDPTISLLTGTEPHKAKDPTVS
The experiment is described as follows: decrease of HSF1-responsive luciferase luminescence – cell-based, NIH3T3, dose retest, confirmation (AID 2382).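 Note: NIH3T3 fibroblasts with HSF1-driven luciferase reporter stressed by proteasome inhibitor MG132; luminescence from HSF1-driven luciferase expression after 8 hours of MG132 stress.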 It is filed as functional.

In experiment [7] the test system is HEK293. As to the kind of experiment: NOD2 signaling inhibitors in MDP-stimulated cells, cell-based, uHTS, luminescence (AID 2001). To be noted: Homo sapiens. In kind it is functional.
A short description of experiment [8]: general cell-killing toxicity readout – plate reader, dry powder samples, cytotoxicity control for PAX8 inhibitor project, dose response (AID 743021). It is filed as functional, cell-based.
The next experiment deals with Paired box protein Pax-8 (Homo sapiens, UniProt Q06710). The experiment is described as follows: PAX8 transcriptional activity inhibition in RMG-I – RMG-I cells, luciferase, cherry-pick, dose response (AID 687027).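 Note: luciferase reporter driven by Pax8 target thyroperoxidase promoter measured by SteadyGlo luminescence.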 In kind it is functional, cell-based.
The subject of experiment [9] is HEK293. As to the kind of experiment: inhibition of NOD1-driven NF-kB reporter – cell-based, luminescence, uHTS, primary screen (AID 1578). The note with it: Homo sapiens. It is filed as functional.
The subject of experiment [10] is HEK293. As to the kind of experiment: cells. In kind it is functional, cell-based. To be noted: Homo sapiens.
The target in the next experiment is CAAX prenyl protease 1 (Saccharomyces cerevisiae S288c, UniProt P47154). The experiment is described as follows: yeast CAAX protease Ste24 inhibition – biochemical, S. cerevisiae, plate reader, cherry-pick, dose response (AID 488815).
A further experiment addresses T3, CAAX prenyl protease 2 (Saccharomyces cerevisiae S288c, UniProt Q03530).
T3 sequence (Q03530 whole entry): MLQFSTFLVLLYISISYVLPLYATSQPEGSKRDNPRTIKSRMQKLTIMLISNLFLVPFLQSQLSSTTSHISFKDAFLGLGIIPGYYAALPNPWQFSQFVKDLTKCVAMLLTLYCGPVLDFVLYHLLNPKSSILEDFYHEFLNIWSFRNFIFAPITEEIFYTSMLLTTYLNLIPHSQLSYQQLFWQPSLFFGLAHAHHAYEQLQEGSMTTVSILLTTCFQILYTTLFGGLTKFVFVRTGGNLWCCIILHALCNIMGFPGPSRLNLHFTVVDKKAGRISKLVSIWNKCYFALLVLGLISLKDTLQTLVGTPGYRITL
It is filed as biochemical.

A short description of experiment [11]: cAMP pathway inhibition in counterscreen cell line – TR-FRET cAMP detection, counter-screen for MC4R biased antagonist project, dose response (AID 602305).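 Note: U2OS cells stimulated with forskolin near its EC80 as the cAMP inducer; potency is for inhibition of forskolin-stimulated cAMP signaling.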 In kind it is functional, cell-based. A general note: The purpose of a counterscreen is to sort out artefacts and off-target activity.
The target of the next experiment is Melanocortin receptor 4 (Homo sapiens, UniProt P32245). As to the kind of experiment: inhibitors of MC4R cAMP signaling – cell-based, TR-FRET, biased antagonists, dose response (AID 602298).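 Note: antagonist potency against agonist-stimulated cAMP production.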 In kind it is functional.
Experiment [12] addresses Heat shock protein HSP 90-alpha (Homo sapiens, UniProt P07900). It is filed as functional, organism-based.

Calls of active or inactive are those of the source.

T1 sequence (P49327 whole entry): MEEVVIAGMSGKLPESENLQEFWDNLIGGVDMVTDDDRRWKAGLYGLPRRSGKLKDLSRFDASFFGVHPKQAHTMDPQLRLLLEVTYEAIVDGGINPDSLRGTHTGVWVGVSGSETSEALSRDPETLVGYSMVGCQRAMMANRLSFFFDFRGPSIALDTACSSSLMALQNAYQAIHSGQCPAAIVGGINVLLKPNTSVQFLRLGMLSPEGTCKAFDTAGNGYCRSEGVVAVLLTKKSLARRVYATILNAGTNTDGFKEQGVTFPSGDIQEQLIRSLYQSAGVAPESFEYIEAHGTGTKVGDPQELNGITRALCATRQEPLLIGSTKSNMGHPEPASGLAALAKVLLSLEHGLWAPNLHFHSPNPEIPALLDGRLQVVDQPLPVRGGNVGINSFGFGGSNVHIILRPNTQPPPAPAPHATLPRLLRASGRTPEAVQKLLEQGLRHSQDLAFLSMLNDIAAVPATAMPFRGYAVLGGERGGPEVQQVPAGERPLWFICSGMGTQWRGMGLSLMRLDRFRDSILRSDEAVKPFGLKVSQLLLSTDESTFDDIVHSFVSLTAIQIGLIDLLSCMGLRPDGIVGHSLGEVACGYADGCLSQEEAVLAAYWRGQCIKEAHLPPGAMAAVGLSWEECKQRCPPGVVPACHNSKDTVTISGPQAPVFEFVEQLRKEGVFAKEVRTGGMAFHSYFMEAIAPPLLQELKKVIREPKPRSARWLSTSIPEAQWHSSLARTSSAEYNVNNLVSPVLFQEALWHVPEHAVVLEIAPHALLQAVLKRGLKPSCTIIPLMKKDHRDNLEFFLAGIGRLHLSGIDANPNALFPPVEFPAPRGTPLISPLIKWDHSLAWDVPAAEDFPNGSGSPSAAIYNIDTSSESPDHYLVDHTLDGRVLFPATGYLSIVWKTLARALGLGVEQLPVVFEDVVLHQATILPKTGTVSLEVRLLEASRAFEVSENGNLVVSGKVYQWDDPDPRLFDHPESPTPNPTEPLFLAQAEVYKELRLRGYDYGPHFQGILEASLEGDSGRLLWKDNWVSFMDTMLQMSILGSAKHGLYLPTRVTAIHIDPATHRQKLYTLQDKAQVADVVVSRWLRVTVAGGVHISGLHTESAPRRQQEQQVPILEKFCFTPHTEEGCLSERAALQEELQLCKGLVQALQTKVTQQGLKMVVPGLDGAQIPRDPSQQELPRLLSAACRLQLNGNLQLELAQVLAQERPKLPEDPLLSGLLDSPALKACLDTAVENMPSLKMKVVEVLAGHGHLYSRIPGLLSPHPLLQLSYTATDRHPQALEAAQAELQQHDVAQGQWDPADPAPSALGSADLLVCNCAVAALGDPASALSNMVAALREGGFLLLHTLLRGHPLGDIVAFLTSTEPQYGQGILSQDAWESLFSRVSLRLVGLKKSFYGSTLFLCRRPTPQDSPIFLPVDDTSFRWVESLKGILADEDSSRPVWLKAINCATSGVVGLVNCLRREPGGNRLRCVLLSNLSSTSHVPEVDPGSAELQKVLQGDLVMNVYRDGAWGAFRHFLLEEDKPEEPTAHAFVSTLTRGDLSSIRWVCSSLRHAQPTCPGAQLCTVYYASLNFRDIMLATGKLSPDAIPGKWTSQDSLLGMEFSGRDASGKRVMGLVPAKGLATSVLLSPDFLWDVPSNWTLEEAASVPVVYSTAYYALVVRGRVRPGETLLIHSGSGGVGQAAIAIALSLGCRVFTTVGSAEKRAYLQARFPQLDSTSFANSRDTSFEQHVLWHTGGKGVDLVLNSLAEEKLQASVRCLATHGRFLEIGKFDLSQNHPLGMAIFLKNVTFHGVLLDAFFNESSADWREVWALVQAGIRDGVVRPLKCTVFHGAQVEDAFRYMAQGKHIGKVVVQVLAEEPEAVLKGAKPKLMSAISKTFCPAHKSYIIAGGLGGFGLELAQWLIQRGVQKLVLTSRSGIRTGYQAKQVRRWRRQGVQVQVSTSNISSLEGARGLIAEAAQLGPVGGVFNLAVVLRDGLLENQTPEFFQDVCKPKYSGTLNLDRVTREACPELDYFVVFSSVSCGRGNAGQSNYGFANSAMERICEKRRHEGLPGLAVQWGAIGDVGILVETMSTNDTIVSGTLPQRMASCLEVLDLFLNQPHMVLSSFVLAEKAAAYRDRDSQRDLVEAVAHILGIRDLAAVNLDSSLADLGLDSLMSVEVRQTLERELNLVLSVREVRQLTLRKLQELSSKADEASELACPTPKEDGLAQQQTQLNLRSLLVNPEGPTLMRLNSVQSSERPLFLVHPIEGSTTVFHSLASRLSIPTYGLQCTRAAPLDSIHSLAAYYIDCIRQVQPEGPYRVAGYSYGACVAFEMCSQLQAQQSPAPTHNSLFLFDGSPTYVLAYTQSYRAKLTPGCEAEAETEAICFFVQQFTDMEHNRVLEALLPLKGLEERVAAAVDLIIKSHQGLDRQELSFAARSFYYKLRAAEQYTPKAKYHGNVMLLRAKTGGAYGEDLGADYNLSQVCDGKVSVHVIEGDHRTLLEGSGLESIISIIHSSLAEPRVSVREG
Sequence of Paired box protein Pax-8 (Q06710 whole entry): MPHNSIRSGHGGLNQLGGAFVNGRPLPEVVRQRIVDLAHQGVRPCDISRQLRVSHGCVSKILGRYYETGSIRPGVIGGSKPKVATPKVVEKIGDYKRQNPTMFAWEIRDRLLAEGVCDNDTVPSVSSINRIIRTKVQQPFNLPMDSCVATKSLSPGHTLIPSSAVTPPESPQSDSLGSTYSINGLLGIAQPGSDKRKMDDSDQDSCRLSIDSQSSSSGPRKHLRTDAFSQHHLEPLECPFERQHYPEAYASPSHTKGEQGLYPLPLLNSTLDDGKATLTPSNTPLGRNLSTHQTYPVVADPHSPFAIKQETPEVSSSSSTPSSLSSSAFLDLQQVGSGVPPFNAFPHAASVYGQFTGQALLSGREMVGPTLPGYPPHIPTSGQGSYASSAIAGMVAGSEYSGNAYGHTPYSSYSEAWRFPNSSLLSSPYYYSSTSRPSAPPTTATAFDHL
Sequence of Nucleotide-binding oligomerization domain-containing protein 2 (Q9HC29 whole entry, the tested form may be a part): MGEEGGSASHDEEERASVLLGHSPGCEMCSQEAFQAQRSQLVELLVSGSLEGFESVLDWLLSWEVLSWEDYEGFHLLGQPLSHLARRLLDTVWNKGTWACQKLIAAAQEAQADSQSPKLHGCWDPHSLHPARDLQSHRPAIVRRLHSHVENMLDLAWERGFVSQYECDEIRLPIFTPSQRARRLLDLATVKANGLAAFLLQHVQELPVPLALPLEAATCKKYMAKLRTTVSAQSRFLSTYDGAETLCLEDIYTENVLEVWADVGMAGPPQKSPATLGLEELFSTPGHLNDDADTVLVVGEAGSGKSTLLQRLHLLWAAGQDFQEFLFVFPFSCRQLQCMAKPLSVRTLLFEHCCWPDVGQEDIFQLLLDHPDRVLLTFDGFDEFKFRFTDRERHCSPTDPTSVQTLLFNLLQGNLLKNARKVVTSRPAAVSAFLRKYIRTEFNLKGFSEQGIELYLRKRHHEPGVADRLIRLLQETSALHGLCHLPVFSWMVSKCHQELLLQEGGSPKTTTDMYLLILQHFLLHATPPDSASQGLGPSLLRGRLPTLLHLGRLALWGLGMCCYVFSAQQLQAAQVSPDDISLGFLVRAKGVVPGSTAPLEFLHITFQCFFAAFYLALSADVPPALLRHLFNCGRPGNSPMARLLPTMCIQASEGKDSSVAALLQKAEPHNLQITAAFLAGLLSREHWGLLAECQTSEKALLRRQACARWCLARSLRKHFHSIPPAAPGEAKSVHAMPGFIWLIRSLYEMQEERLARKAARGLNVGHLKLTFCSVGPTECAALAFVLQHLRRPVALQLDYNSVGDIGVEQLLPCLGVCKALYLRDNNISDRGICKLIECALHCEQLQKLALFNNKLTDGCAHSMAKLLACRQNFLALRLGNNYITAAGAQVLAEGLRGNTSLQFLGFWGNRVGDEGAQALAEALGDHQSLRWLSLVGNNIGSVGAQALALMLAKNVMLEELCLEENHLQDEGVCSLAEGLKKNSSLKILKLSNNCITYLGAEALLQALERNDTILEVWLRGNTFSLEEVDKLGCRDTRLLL
Sequence of Melanocortin receptor 4 (P32245 whole entry): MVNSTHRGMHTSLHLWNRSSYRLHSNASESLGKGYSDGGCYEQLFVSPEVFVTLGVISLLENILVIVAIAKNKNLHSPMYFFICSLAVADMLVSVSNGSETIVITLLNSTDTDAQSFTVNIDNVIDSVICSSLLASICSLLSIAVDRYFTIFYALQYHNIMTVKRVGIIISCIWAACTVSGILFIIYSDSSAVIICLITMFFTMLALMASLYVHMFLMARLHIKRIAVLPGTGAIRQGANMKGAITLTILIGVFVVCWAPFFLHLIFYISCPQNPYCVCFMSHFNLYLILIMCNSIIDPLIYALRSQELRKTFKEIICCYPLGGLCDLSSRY
Sequence of CAAX prenyl protease 1 (P47154 whole entry): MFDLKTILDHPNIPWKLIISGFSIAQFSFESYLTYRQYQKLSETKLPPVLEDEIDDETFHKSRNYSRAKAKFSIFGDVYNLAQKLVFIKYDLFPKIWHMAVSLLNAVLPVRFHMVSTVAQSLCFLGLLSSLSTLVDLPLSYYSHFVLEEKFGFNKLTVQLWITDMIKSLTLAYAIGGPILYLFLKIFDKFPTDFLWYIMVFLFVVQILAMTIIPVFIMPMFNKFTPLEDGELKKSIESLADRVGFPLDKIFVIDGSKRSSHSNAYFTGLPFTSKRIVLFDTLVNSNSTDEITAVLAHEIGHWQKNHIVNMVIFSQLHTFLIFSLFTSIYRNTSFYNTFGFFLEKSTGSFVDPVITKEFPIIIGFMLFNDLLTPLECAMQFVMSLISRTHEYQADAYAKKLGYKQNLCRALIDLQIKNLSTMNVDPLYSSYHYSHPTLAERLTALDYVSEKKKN

Regarding `O=C(NCCc1ccccc1)C(c1cccs1)N(C(=O)CCl)c1ccc(Cl)cc1` (stereo unspecified), the IC50 at Fatty acid synthase [1] was 7.91 µM (active); at Fatty acid synthase [2], 10.3 µM (active); in the experiment with HEK293 [7], 5.36 µM (active); with HEK293 [10] it was 4.24 µM (active). Besides, the EC50 in [3] is 2.62 µM (active); in [4], > 20 µM (inactive); in experiment [5], 3.7 µM (active); in [6], 1.28 µM (active); in the experiment with HEK293 [9], 5.3 µM (active). The values for the AC50 (in experiment [8]; at Paired box protein Pax-8) were 6.13 µM (active) and 2.84 µM (active), respectively.

On to `CCCCCCCCCC[N+](C)(C)CC/C=C1/c2ccccc2Sc2ccc(Cl)cc21`, for which the AC50 at CAAX prenyl protease 1 is 6.47 µM (active); at CAAX prenyl protease 2, 4.96 µM (active); in experiment [12], 8.12 µM (active). Moreover, the IC50 in experiment [11] is 22.6 µM (inactive); on Melanocortin receptor 4, 31.2 µM (inactive).
